Biological target: His-tagged recombinant human Gal-3 (hGal-3) (Homo sapiens (Human), UniProt P17931)
Test: Gal-3 HTRF assay (His-tagged hGal-3 binding to B-ASF);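 note: compounds preincubated 30 min with hGal-3, then 1 h with B-ASF, detection via terbium anti-His antibody and streptavidin d2. Control with B-ASF counts as full signal, omitting B-ASF as background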
Conditions: HTRF, hGal-3 15 nM, B-ASF 15 nM; read-out: hGal-3 IC50

Chain of His-tagged recombinant human Gal-3 (hGal-3) (P17931 whole entry): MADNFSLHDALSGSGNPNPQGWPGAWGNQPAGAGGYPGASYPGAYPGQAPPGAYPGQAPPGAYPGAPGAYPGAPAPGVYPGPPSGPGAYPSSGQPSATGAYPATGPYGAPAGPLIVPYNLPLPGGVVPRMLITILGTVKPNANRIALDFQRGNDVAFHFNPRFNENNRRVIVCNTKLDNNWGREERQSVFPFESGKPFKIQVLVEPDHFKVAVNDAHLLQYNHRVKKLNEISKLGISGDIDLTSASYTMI

| SMILES | IC50 [nM] |
| --- | --- |
| Cc1nc2ccc(-n3c(C(N)=O)nnc3[C@@H]3O[C@H](CO)[C@H](O)[C@H](n4cc(-c5cc(F)c(F)c(F)c5)nn4)[C@H]3O)cc2s1 [Example 277, 5-((2S,3R,4R,5R,6R)-3,5-dihydroxy-6-(hydroxymethyl)-4-(4-(3,4,5-trifluorophenyl)-1H-1,2,3-triazol-1-yl)tetrahydro-2H-pyran-2-yl)-4-(2-methylbenzo[d]thiazol-6-yl)-4H-1,2,4-triazole-3-carboxamide] | 40 |
| CSc1nnc([C@@H]2O[C@H](CO)[C@H](O)[C@H](n3cc(-c4cc(F)c(F)c(F)c4)nn3)[C@H]2O)n1-c1ccc(Cl)c(Cl)c1 [Example 278, (2S,3R,4R,5R,6R)-2-(4-(3,4-dichlorophenyl)-5-(methylthio)-4H-1,2,4-triazol-3-yl)-6-(hydroxymethyl)-4-(4-(3,4,5-trifluorophenyl)-1H-1,2,3-triazol-1-yl)tetrahydro-2H-pyran-3,5-diol] | 120 |
| CS(=O)(=O)c1nnc([C@@H]2O[C@H](CO)[C@H](O)[C@H](n3cc(-c4cc(F)c(F)c(F)c4)nn3)[C@H]2O)n1-c1ccc(Cl)c(Cl)c1 [Example 279, (2S,3R,4R,5R,6R)-2-(4-(3,4-dichlorophenyl)-5-(methylsulfonyl)-4H-1,2,4-triazol-3-yl)-6-(hydroxymethyl)-4-(4-(3,4,5-trifluorophenyl)-1H-1,2,3-triazol-1-yl)tetrahydro-2H-pyran-3,5-diol] | 70 |
| Cc1nc2ccc(-n3c(C)nnc3[C@H]3C[C@@H](n4cc(-c5cc(F)c(F)c(F)c5)nn4)[C@@H](O)[C@@H](CO)O3)cc2s1 [Example 280, (2R,3R,4R,6R)-2-(hydroxymethyl)-6-(5-methyl-4-(2-methylbenzo[d]thiazol-6-yl)-4H-1,2,4-triazol-3-yl)-4-(4-(3,4,5-trifluorophenyl)-1H-1,2,3-triazol-1-yl)tetrahydro-2H-pyran-3-ol] | 70 |
| Cc1nc2ccc(-n3c([C@H]4C[C@@H](n5cc(-c6cc(F)c(F)c(F)c6)nn5)[C@@H](O)[C@@H](CO)O4)nnc3C(F)(F)F)cc2s1 [Example 281, (2R,3R,4R,6R)-2-(hydroxymethyl)-6-(4-(2-methylbenzo[d]thiazol-6-yl)-5-(trifluoromethyl)-4H-1,2,4-triazol-3-yl)-4-(4-(3,4,5-trifluorophenyl)-1H-1,2,3-triazol-1-yl)tetrahydro-2H-pyran-3-ol] | 80 |

Now from value to molecule:

| IC50 [nM] | SMILES |
| --- | --- |
| 30 | CO[C@@H]1[C@@H](n2cc(-c3cc(F)c(F)c(F)c3)nn2)[C@@H](O)[C@@H](CO)O[C@H]1c1nncn1-c1ccc2nc(C)sc2c1 [Example 282, (2R,3R,4S,5R,6S)-2-(hydroxymethyl)-5-methoxy-6-(4-(2-methylbenzo[d]thiazol-6-yl)-4H-1,2,4-triazol-3-yl)-4-(4-(3,4,5-trifluorophenyl)-1H-1,2,3-triazol-1-yl)tetrahydro-2H-pyran-3-ol] |
| 2400 | Cc1nc([C@@H]2O[C@H](CO)[C@H](O)[C@H](n3cc(-c4cc(F)c(F)c(F)c4)nn3)[C@H]2O)c(-c2cccc(Cl)c2)s1 [Example 284, (2S,3R,4R,5R,6R)-2-(5-(3-chlorophenyl)-2-methylthiazol-4-yl)-6-(hydroxymethyl)-4-(4-(3,4,5-trifluorophenyl)-1H-1,2,3-triazol-1-yl)tetrahydro-2H-pyran-3,5-diol] |
| 445 | OC[C@H]1O[C@@H](c2ccnn2-c2ccc(Cl)c(Cl)c2)[C@H](O)[C@@H](n2cc(-c3cc(F)c(F)c(F)c3)nn2)[C@H]1O [Example 285, (2S,3R,4R,5R,6R)-2-(1-(3,4-dichlorophenyl)-1H-pyrazol-5-yl)-6-(hydroxymethyl)-4-(4-(3,4,5-trifluorophenyl)-1H-1,2,3-triazol-1-yl)tetrahydro-2H-pyran-3,5-diol] |
| 10000 | Cn1ncc(-c2cccc(Cl)c2)c1[C@@H]1O[C@H](CO)[C@H](O)[C@H](n2cc(-c3cc(F)c(F)c(F)c3)nn2)[C@H]1O [Example 287, (2S,3R,4R,5R,6R)-2-(4-(3-chlorophenyl)-1-methyl-1H-pyrazol-5-yl)-6-(hydroxymethyl)-4-(4-(3,4,5-trifluorophenyl)-1H-1,2,3-triazol-1-yl)tetrahydro-2H-pyran-3,5-diol] |
